Earlier results on two compounds are cited in patent US11304932B2, “Diaryl and arylheteroaryl urea derivatives as modulators of the 5-HT2A serotonin receptor useful for the prophylaxis and treatment of hallucinations associated with a neurodegenerative disease” (Axovant Sciences GmbH, priority 2015, dated 2022).

Molecules are shown by their SMILES.

The conditions of data set [1]: clozapine at low dose.

Regarding `COc1ccc(NC(=O)Nc2ccc(F)cc2F)cc1-c1c(Br)cnn1C` [Nelotanserin, 1-[3-(4-bromo-2-methyl-2H-pyrazol-3-yl)-4-methoxy-phenyl]-3-(2,4-difluoro-phenyl)-urea], the “tolerability and PK/PD profile” value (daily dose of 80 mg, studies completed to date) is “favorable tolerability and PK/PD profile”. Where the note is “previous clinical studies to date, proposed dose range”, the “safety and tolerability profile” value was “acceptable safety and tolerability profile”. With `CC(C)COc1ccc(CNC(=O)N(Cc2ccc(F)cc2)C2CCN(C)CC2)cc1` [pimavanserin, N-(4-fluorophenylmethyl)-N-(1-methylpiperidin-4-yl)-N′-(4-(2-methylpropyloxy)phenylmethyl)carbamide], the “efficacy in psychotic symptoms associated with Parkinson's Disease” value in data set [1] is “demonstrate efficacy”.
